{"source": "paper PMC6215257", "about": "“Erianin against Staphylococcus aureus Infection via Inhibiting Sortase A” (Toxins, 2018)", "key": {"[1]": {"molecular_target": "T1, R197A-SrtA (Sortase A) (Staphylococcus aureus, UniProt Q2FV99, R197A)", "T1 construct": "residues 60–206 (pG-srtAΔN59, pGEX-6P-1)", "experiment": "fluorescence quenching binding constant (KA); FRET inhibition reduced vs WT"}, "[2]": {"molecular_target": "T2, V193A-SrtA (Sortase A) (Staphylococcus aureus, UniProt Q2FV99, V193A)", "T2 construct": "residues 60–206 (pG-srtAΔN59, pGEX-6P-1)", "experiment": "fluorescence quenching binding constant (KA); FRET inhibition reduced vs WT"}, "[3]": {"molecular_target": "T3, Sortase A (srtA) (Staphylococcus aureus, UniProt Q2FV99)", "T3 construct": "residues 60–206 (pG-srtAΔN59, pGEX-6P-1)", "experiment": "FRET peptide cleavage assay with purified SrtA; binding also by fluorescence quenching (KA […] L/mol)", "format": "biochemical"}}, "data": [{"smiles": "COc1ccc(CCc2cc(OC)c(OC)c(OC)c2)cc1O", "note": "[erianin]", "values": [{"measurement": "Kd", "setting": "[1]", "result": 2530, "unit": "nM"}, {"measurement": "Kd", "setting": "[2]", "result": 2280, "unit": "nM"}, {"measurement": "IC50", "setting": "[3]", "result": "65700 ± 7200", "unit": "nM"}]}]}
